Type in all cases: biochemical
The target in assay [1] is SIK3 (Homo sapiens, UniProt Q9Y2K2). Nature of the assay: SIK3 kinase assay, IMAP fluorescence polarization. On the technique in general: Polarisation of emitted light reports the rotation of a fluorescent probe.
The target in assay [2] is SIK1 (Homo sapiens, UniProt P57059). In words: SIK1 kinase assay, IMAP fluorescence polarization.
The target of assay [3] is EPHA2 (Homo sapiens, UniProt P29317). In words: EPHA2 kinase assay, IMAP fluorescence polarization.
The target in assay [4] is Abl (Homo sapiens, UniProt P00519). Nature of the assay: Abl kinase assay, IMAP fluorescence polarization.
In assay [5] the target is Src (Homo sapiens, UniProt P12931). Nature of the assay: Src kinase assay, IMAP fluorescence polarization.
Assay [6] concerns the target SIK2 (Homo sapiens, UniProt Q9H0K1). Nature of the assay: SIK2 kinase assay, IMAP fluorescence polarization.
[7] abbreviates: 50 or 100 μM ATP, average, read-out: SIK3-AVERAGE Ki.
The mark [8] stands for this setting: 50 or 100 μM ATP, average, read-out: SIK1-AVERAGE Ki.
[9] abbreviates: 50 or 100 μM ATP, average, read-out: Abl-AVERAGE Ki.
Setting [10] is: 50 or 100 μM ATP, average, read-out: Src-AVERAGE Ki.
Where [11] appears, read: 50 or 100 μM ATP, average, read-out: SIK2-AVERAGE Ki.

Where two headings read alike, the source gives them in different places.

As usually defined, the Ki is the dissociation constant of the complex between target and ligand, obtained from inhibition or displacement.

Abl, sequence (P00519 whole entry): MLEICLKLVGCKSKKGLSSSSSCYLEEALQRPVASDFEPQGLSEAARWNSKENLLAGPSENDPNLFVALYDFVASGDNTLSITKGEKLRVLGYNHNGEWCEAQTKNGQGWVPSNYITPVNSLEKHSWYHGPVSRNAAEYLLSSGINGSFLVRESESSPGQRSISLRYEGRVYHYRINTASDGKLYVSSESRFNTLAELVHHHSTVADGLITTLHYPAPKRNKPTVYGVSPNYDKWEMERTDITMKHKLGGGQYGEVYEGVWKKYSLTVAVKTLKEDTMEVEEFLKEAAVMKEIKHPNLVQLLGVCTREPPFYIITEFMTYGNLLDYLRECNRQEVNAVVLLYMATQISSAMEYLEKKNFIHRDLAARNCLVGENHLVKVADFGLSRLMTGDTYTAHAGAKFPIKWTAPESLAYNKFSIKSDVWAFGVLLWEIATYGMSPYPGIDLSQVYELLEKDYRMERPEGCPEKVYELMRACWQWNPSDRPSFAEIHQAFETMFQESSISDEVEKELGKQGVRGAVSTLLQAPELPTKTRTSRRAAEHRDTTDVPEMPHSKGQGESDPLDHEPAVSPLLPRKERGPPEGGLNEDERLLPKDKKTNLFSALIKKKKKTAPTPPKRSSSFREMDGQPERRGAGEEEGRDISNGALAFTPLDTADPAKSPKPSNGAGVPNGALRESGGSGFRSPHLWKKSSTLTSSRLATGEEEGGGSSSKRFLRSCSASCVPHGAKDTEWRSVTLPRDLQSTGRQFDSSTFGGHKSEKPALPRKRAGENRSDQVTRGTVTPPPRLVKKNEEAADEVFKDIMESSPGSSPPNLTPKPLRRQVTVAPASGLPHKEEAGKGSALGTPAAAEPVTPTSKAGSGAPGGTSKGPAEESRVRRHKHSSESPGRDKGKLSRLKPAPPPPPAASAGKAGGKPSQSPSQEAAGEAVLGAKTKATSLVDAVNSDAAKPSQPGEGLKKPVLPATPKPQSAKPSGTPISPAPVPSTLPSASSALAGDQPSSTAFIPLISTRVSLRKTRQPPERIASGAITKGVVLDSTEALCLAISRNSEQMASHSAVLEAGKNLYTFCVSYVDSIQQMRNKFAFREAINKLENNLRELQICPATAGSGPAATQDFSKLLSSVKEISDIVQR
SIK1, sequence (P57059 whole entry): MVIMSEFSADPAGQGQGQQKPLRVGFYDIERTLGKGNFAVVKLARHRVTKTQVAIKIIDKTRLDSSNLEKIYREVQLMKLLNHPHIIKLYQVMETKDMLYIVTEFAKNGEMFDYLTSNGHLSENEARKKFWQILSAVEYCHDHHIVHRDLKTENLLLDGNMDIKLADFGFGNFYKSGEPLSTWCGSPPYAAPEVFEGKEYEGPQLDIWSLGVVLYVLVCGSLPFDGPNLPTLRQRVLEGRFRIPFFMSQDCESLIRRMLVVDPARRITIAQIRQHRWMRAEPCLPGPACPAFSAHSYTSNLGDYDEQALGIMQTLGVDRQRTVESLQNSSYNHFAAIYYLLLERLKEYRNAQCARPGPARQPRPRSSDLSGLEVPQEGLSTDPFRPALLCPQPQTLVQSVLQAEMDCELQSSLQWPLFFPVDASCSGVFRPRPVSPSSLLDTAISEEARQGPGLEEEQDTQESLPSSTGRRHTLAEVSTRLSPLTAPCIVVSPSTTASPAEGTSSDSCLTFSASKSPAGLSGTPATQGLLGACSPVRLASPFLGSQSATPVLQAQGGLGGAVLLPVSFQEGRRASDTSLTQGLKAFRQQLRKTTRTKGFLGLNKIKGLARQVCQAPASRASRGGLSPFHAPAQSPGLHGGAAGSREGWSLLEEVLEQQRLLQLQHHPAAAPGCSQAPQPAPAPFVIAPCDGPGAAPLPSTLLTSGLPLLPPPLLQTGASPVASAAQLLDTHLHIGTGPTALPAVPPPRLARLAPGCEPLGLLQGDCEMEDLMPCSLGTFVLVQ
SIK3, sequence (Q9Y2K2 whole entry): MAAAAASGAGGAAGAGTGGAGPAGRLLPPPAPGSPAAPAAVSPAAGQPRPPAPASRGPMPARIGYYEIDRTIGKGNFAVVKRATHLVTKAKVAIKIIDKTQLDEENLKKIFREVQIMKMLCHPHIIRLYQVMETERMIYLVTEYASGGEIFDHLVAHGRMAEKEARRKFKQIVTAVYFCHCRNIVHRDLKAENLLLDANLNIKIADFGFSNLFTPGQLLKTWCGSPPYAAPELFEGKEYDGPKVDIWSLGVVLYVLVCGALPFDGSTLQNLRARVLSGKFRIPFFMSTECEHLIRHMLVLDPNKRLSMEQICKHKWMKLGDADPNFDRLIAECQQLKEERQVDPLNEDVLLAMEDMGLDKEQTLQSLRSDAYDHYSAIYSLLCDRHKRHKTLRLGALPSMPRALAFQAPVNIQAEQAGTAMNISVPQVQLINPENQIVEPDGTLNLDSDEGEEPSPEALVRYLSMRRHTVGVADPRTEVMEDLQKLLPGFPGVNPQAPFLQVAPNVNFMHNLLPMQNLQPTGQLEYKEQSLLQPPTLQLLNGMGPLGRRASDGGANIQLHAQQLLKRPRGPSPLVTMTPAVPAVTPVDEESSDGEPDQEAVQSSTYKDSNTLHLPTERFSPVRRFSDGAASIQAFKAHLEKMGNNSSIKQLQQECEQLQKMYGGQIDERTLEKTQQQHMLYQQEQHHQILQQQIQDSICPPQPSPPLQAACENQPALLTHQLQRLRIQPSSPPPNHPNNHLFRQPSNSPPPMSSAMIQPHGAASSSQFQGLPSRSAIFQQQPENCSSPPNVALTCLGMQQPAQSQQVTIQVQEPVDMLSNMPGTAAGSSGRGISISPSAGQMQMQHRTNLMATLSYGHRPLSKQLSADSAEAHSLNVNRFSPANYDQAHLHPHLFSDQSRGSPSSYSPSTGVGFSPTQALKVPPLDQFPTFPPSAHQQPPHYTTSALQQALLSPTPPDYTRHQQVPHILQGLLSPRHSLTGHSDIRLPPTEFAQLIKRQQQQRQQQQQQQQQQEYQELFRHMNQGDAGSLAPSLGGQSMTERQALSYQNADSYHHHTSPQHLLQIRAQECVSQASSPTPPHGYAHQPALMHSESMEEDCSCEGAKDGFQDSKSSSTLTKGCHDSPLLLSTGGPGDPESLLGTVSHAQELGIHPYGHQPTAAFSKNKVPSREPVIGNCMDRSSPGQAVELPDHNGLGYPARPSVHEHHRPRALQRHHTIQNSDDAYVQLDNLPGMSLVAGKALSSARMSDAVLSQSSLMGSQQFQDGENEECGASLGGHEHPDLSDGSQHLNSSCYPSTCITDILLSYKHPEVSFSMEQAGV
Src, sequence (P12931 whole entry): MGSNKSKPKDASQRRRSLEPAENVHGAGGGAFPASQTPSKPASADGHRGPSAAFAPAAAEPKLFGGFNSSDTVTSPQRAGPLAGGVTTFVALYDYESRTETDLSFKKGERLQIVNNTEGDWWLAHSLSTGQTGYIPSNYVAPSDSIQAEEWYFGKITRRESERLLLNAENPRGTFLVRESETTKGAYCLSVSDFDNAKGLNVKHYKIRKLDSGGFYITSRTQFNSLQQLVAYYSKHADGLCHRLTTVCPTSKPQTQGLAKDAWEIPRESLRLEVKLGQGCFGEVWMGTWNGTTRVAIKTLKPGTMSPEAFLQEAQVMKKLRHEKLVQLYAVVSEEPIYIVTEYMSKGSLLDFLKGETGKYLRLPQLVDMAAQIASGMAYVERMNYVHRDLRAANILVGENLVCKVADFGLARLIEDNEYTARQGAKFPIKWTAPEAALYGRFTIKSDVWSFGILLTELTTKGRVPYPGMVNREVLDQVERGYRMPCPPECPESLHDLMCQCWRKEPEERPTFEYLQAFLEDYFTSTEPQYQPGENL
SIK2, sequence (Q9H0K1 whole entry): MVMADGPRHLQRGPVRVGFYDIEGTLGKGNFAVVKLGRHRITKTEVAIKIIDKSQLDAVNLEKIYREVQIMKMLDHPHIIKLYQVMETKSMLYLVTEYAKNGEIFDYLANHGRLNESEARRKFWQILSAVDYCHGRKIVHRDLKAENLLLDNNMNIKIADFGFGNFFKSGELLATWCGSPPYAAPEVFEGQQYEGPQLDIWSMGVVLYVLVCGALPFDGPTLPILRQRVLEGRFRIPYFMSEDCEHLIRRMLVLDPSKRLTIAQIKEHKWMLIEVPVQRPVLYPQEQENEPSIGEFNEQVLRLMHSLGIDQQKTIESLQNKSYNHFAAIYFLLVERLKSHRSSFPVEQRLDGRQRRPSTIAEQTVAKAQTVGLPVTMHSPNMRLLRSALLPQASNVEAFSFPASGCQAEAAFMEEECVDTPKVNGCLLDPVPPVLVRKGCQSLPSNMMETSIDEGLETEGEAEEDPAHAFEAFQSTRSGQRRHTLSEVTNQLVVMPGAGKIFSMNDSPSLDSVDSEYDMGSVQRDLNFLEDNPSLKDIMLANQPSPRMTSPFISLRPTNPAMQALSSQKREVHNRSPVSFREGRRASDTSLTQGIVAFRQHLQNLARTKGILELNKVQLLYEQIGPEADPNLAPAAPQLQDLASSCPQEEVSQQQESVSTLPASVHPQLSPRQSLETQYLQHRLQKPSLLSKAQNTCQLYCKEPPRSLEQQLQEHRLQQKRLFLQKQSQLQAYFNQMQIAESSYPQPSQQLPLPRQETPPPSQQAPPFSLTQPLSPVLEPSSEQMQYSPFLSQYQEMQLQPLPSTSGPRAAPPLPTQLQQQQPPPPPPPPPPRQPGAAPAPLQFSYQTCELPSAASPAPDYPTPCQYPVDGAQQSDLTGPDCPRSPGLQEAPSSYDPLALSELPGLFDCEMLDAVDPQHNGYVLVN

Regarding `Cc1cccc(F)c1N1Cc2cnc(N)cc2N([C@H]2CCCN(C)CC2)C1=O` [Example 86, 7-amino-3-(2-fluoro-6-methyl-phenyl)-1-[(4S)-1-methylazepan-4-yl]-4H-pyrido[4,3-d]pyrimidin-2-one], the Ki in assay [1] (setting [7]) was determined as 6.15 nM; in assay [2] (setting [8]), 1.86 nM; in assay [3] (50 or 100 μM ATP, average), 502 nM; in assay [4] (setting [9]), 94.7 nM; in assay [5] (setting [10]), 644 nM; in assay [6] (setting [11]), 0.592 nM.
For the molecule `Cc1cccc(F)c1N1Cc2cnc(N)nc2N([C@@H]2CCCN(C)CC2)C1=O` [Example 34, 7-amino-3-(2-fluoro-6-methyl-phenyl)-1[(4R)-1-methylazepan-4-yl]-4H-pyrimido[4,5-d]pyrimidin-2-one], the inhibition constant (Ki) came out at 1.48 nM in assay [1] (setting [7]); 0.733 nM in assay [2] (setting [8]); 29.6 nM in assay [3]; 33.6 nM in assay [4] (setting [9]); 138 nM in assay [5] (setting [10]); 0.374 nM in assay [6] (setting [11]).
With `Cc1cccc(F)c1N1Cc2cnc(N)cc2N([C@@H]2CCNC2)C1=O` [Example 47, 7-Amino-3-(2-fluoro-6-methyl-phenyl)-1-[(3R)-pyrrolidin-3-yl]-4H-pyrido[4,3-d]pyrimidin-2-one], the inhibition constant Ki in assay [1] (setting [7]) is 16.6 nM; in assay [2] (setting [8]) it was 2.6 nM; in assay [3] (50 or 100 μM ATP, average), 247 nM; in assay [4] (setting [9]) it was over 1000 nM; in assay [5] (setting [10]), over 1000 nM; in assay [6] (setting [11]) it was 1.32 nM.
As to `Cc1cccc(F)c1N1Cc2cnc(N)cc2N([C@@H]2CCN(C)C2)C1=O` [Example 80, 7-amino-3-(2-fluoro-6-methyl-phenyl)-1-[(3R)-1-methylpyrrolidin-3-yl]-4H-pyrido[4,3-d]pyrimidin-2-one], the inhibitory constant (Ki) is 37.9 nM in assay [1] (setting [7]); 3.2 nM in assay [2] (setting [8]); 296 nM in assay [3]; 352 nM in assay [4] (setting [9]); over 10000 nM in assay [5] (setting [10]); 2.12 nM in assay [6] (setting [11]).
With `Cc1cccc(F)c1N1Cc2cnc(N)cc2N([C@H]2CCCNC2)C1=O` [Example 49, 7-amino-3-(2-fluoro-6-methyl-phenyl)-1-[(3S)-3-piperidyl]-4H-pyrido[4,3-d]pyrimidin-2-one], the Ki was 3.21 nM in assay [1] (setting [7]); 0.878 nM in assay [2] (setting [8]); over 1000 nM in assay [3]; over 1000 nM in assay [4] (setting [9]); over 1000 nM in assay [5] (setting [10]); 0.473 nM in assay [6] (setting [11]).
As to `CN[C@H]1CC[C@H](N2C(=O)N(c3c(C)cccc3F)Cc3cnc(N)cc32)CC1` [Example 64, trans-7-amino-3-(2-fluoro-6-methyl-phenyl)-1-[4-(methylamino)cyclohexyl]-4H-pyrido[4,3-d]pyrimidin-2-one], the Ki in assay [1] (setting [7]) came out at 1.35 nM; in assay [2] (setting [8]), 0.733 nM; in assay [3] (50 or 100 μM ATP, average), 97.4 nM; in assay [4] (setting [9]), 25.5 nM; in assay [5] (setting [10]), 39.4 nM; in assay [6] (setting [11]), 0.343 nM.
For `Cc1cccc(F)c1N1Cc2cnc(N)cc2N([C@@H]2CCCCNC2)C1=O` [Example 50, 7-amino-3-(2-fluoro-6-methyl-phenyl)-1-[(3R)-azepan-3-yl]-4H-pyrido[4,3-d]pyrimidin-2-one], the inhibition constant (Ki) in assay [1] (setting [7]) came out at 1.36 nM; in assay [2] (setting [8]) it was 0.193 nM; in assay [3] (50 or 100 μM ATP, average), 13.6 nM; in assay [4] (setting [9]), 6.12 nM; in assay [5] (setting [10]) it was 24.2 nM; in assay [6] (setting [11]) it was 0.152 nM.
Take `Cc1cccc(F)c1N1Cc2cnc(N)nc2N([C@@H]2CCCCN(C)C2)C1=O` [Example 38, 7-amino-3-(2-fluoro-6-methyl-phenyl)-1-[(3R)-1-methylazepan-3-yl]-4H-pyrimido[4,5-d]pyrimidin-2-one]: the inhibitory constant (Ki) in assay [1] (setting [7]) amounted to 46.7 nM; in assay [2] (setting [8]), 9.57 nM; in assay [3] (50 or 100 μM ATP, average) it was 188 nM; in assay [4] (setting [9]), 144 nM; in assay [5] (setting [10]) it was 678 nM; in assay [6] (setting [11]) it was 2.7 nM.
As to `Cc1cccc(F)c1N1Cc2cnc(N)cc2N([C@H]2CCC[C@@H](N)C2)C1=O` (relative stereo) [Example 56, 7-amino-1-[(cis)-3-aminocyclohexyl]-3-(2-fluoro-6-methyl-phenyl)-4H-pyrido[4,3-d]pyrimidin-2-one], the inhibitory constant (Ki) was 1.46 nM in assay [1] (setting [7]); 0.604 nM in assay [2] (setting [8]); 42.3 nM in assay [3] (50 or 100 μM ATP, average); 3.28 nM in assay [4] (setting [9]); 18.9 nM in assay [5] (setting [10]); 0.19 nM in assay [6] (setting [11]).
As to `Cc1cccc(F)c1N1Cc2cnc(N)nc2N([C@@H]2CCCNCC2)C1=O` [Example 68, 7-amino-1-[(4R)-azepan-4-yl]-3-(2-fluoro-6-methyl-phenyl)-4H-pyrimido[4,5-d]pyrimidin-2-one], the inhibition constant Ki in assay [1] (setting [7]) was 0.845 nM; in assay [2] (setting [8]), 0.397 nM; in assay [3] (50 or 100 μM ATP, average) it was 22.3 nM; in assay [4] (setting [9]), 15.3 nM; in assay [5] (setting [10]), 47.7 nM; in assay [6] (setting [11]), 0.197 nM.
As for `CCN1CCC(N2C(=O)N(c3c(C)cccc3Cl)Cc3cncnc32)CC1` [Example 29, 3-(2-chloro-6-methyl-phenyl)-1-(1-ethyl-4-piperidyl)-4H-pyrimido[4,5-d]pyrimidin-2-one], the Ki is 1700 nM in assay [1]; 207 nM in assay [2]; 6490 nM in assay [4]; over 100000 nM in assay [5]; 128 nM in assay [6].
For `CCN1CCC(N2C(=O)N(c3c(C)cccc3Cl)Cc3cnccc32)CC1` [Example 33, 3-(2-chloro-6-methyl-phenyl)-1-(1-ethyl-4-piperidyl)-4H-pyrido[4,3-d]pyrimidin-2-one], the inhibition constant Ki is 213 nM in assay [1]; 34.1 nM in assay [2]; 4950 nM in assay [4]; 1540 nM in assay [5]; 20.3 nM in assay [6].
The matching figures for `Cc1cccc(F)c1N1Cc2cnc(N)nc2N(C2CCNCC2)C1=O` [Example 11, 7-Amino-3-(2-fluoro-6-methyl-phenyl)-1-(4-piperidyl)-4H-pyrimido[4,5-d]pyrimidin-2-one]: 4.44 nM, 2.36 nM, 171 nM, 464 nM and 0.481 nM.
In the case of `Cc1cccc(Cl)c1N1Cc2cncnc2N(C2CCN(C)CC2)C1=O` [Example 28, 3-(2-chloro-6-methyl-phenyl)-1-(1-methyl-4-piperidyl)-4H-pyrimido[4,5-d]pyrimidin-2-one], the Ki is 2220 nM in assay [1]; 397 nM in assay [2]; 6220 nM in assay [4]; over 100000 nM in assay [5]; 213 nM in assay [6].
Turning to `Cc1cccc(F)c1N1Cc2cncnc2N(C2CCN(C)CC2)C1=O` [Example 26, 3-(2-fluoro-6-methyl-phenyl)-1-(1-methyl-4-piperidyl)-4H-pyrimido[4,5-d]pyrimidin-2-one], the Ki in assay [1] was 895 nM; in assay [2], 586 nM; in assay [4], over 100000 nM; in assay [5], over 100000 nM; in assay [6] it was 192 nM.
As to `CCN1CCC(N2C(=O)N(c3c(C)cccc3F)Cc3cncnc32)CC1` [Example 27, 1-(1-ethyl-4-piperidyl)-3-(2-fluoro-6-methyl-phenyl)-4H-pyrimido[4,5-d]pyrimidin-2-one], the Ki in assay [1] is 956 nM; in assay [2], 635 nM; in assay [4], 4190 nM; in assay [5], over 100000 nM; in assay [6], 210 nM.
The matching figures for `CCN1CCC(N2C(=O)N(c3c(C)cccc3F)Cc3cnccc32)CC1` [Example 25, 1-(1-ethyl-4-piperidyl)-3-(2-fluoro-6-methyl-phenyl)-4H-pyrido[4,3-d]pyrimidin-2-one]: 36.3 nM, 33.2 nM, over 10000 nM, 2640 nM and 17 nM.
In the same order, the values of `Cc1cccc(F)c1N1Cc2cnccc2N(C2CCNCC2)C1=O` [Example 18, 3-(2-Fluoro-6-methyl-phenyl)-1-(4-piperidyl)-4H-pyrido[4,3-d]pyrimidin-2-one] are 21.2 nM, 12 nM, 512 nM, 1900 nM and 8.2 nM.
On to `Cc1cccc(Cl)c1N1Cc2cnccc2N(C2CCNCC2)C1=O` [Example 66, 3-(2-chloro-6-methyl-phenyl)-1-(4-piperidyl)-4H-pyrido[4,3-d]pyrimidin-2-one], for which the Ki came to 98.8 nM in assay [1]; 10.2 nM in assay [2]; 621 nM in assay [4]; 436 nM in assay [5]; 13.2 nM in assay [6].
Turning to `Cc1cccc(Cl)c1N1Cc2cnc(N)nc2N(C2CCNCC2)C1=O` [Example 15, 7-Amino-3-(2-chloro-6-methyl-phenyl)-1-(4-piperidyl)-4H-pyrimido[4,5-d]pyrimidin-2-one], the Ki is 18.7 nM in assay [1]; 6.23 nM in assay [2]; over 1000 nM in assay [4]; 138 nM in assay [5]; 1.63 nM in assay [6].
For the molecule `Cc1cccc(F)c1N1Cc2cnc(N)nc2N(C2CCN(C)CC2)C1=O` [Example 19, 7-Amino-3-(2-fluoro-6-methyl-phenyl)-1-(1-methyl-4-piperidyl)-4H-pyrimido[4,5-d]pyrimidin-2-one], the inhibition constant (Ki) in assay [1] is 4.12 nM; in assay [2], 9.73 nM; in assay [4], over 1000 nM; in assay [5], over 1000 nM; in assay [6], 0.739 nM.
For `Cc1cccc(F)c1N1Cc2cnc(N(C)C)cc2N([C@H]2CCC[C@@H](N(C)C)C2)C1=O` (relative stereo) [Example 44, 7-(dimethylamino)-1-[cis-3-(dimethylamino)cyclohexyl]-3-(2-fluoro-6-methyl-phenyl)-4H-pyrido[4,3-d]pyrimidin-2-one], the Ki in assay [1] (setting [7]) was 1370 nM; in assay [2] (setting [8]), 263 nM; in assay [3] (50 or 100 μM ATP, average), 6410 nM; in assay [5] (setting [10]), over 10000 nM; in assay [6] (setting [11]) it was 123 nM.
